In test [1] the test system is IL10 release from human monocyte derived macrophages stimulated with LPS. Kind of test: SIK macrophage cytokine assay, increase of IL10 release. Format: cell-based. To be noted: 1 ng/mL LPS, 4 hours, HTRF. As to the method: (§1) Cytokine Assays: SIK Macrophage Assay Cytokine activity is determined by measuring the effect of a test agent on the inhibitory release of the cytokine TNFα and the increasing release of the cytokine IL10 from human monocyte derived macrophages (human macrophages) stimulated with lipopolysaccharide (LPS). At the time of assay, human macrophages (CGPS group Pfizer Groton, CT) are removed from cryopreservation, thawed quickly at 37° C., diluted in thaw medium (OptiMEM—Gibco medium, 10% heat inactivated fetal bovine serum (HIFBS)), and then centrifuged at 200×g for 10 minutes. […] After ˜60 minutes in an incubator at 37° C. in a humidified environment in 5% carbon dioxide the cells are stimulated by the addition of 5 μL of LPS (10 ng/mL; Sigma) and the assay plate is returned to an incubator at 37° C. in a humidified environment in 5% carbon dioxide for 4 hours. […] The final concentration of DMSO in the assay is approximately 0.1%. After 4 hours, the assay plate is removed from the incubator and centrifuged at 1500 rpm for 10 minutes. A portion of the resulting cell supernatant is then used to determine the amount of IL-10 and TNFα in each well. Cytokine measurements are made using human IL-10 and TNFα HTRF assay kits (Perkin Elmer) following the manufacturer's assay protocol.

The subject of test [2] is TNFα release from human monocyte derived macrophages stimulated with LPS. The experiment in a line: SIK macrophage cytokine assay, inhibition of TNFα release. Format: cell-based. Particulars: 1 ng/mL LPS, 4 hours, HTRF, read-out: TNFa IC50. The protocol: as §1
On the technique in general: Time-resolved FRET reads energy transfer from a long-lived donor to a nearby acceptor.

The next test deals with SIK3 (Homo sapiens (Human), UniProt Q9Y2K2). Kind of test: Pan SIK MS IC50 enzyme assay (SIK3). The format is biochemical. Particulars: 1 mM ATP, substrate peptide AQT0508, LCMS/MS detection. The protocol: (§2) Enzyme Assay: Pan SIK MS IC50 Assay
Chain of SIK3 (Q9Y2K2 whole entry, species assumed): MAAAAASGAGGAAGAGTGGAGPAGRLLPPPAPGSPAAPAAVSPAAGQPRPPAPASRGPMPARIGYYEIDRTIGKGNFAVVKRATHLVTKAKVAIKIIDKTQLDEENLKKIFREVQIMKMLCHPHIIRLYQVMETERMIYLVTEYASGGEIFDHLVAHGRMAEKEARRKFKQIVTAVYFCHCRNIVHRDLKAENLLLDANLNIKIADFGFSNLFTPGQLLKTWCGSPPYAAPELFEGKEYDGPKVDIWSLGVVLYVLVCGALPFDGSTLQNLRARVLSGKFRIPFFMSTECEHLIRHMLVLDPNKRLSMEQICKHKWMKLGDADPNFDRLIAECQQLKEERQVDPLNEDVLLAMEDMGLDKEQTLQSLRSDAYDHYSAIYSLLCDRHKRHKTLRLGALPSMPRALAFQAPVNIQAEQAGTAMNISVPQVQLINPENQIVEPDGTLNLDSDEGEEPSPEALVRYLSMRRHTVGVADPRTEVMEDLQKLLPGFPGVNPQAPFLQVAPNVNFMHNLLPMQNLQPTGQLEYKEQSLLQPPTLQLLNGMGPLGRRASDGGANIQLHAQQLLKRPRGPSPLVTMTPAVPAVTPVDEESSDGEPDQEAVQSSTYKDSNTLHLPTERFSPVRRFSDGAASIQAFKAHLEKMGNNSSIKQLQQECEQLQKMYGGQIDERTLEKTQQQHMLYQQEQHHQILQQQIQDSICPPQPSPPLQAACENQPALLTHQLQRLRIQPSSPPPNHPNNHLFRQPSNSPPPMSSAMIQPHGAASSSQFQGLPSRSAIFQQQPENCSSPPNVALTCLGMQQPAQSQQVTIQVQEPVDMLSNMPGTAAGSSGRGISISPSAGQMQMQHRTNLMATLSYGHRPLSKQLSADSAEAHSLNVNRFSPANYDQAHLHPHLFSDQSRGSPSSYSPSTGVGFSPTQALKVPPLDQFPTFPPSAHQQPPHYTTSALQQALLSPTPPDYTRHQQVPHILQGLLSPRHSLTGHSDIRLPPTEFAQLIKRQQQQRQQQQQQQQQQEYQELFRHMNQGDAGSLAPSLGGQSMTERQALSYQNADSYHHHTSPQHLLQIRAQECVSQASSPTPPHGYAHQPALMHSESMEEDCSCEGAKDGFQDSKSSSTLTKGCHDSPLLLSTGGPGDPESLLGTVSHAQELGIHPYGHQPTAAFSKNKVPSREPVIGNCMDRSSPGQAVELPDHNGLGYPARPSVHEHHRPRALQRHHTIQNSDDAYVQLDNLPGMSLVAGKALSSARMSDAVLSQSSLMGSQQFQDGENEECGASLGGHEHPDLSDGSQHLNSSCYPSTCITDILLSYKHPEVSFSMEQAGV
(§3) Salt Induced Kinase (SIK) activity is determined by measuring the effect of a test agent on the activity of the appropriate SIK enzyme to phosphorylate its corresponding substrate. […] The phosphorylated substrate product resulting from the kinase reaction is detected by LCMS/MS, and the area under the peak curve correlates with kinase activity. […] The plates are spun at 1000 rpm for 30 seconds to ensure compounds are at the bottom of the well before removing foil covers. 0.15 μL HPE (assay std) and ZPE (DMSO) are added to the ARP using an HP D300 dispenser. Plates are spun again at 1000 rpm for 30 seconds. […] Plates are spun at 1000 rpm for 30 seconds. Plates are then sealed and incubated at RT for 10 minutes. Following incubation, 5 μL of 5× peptide reagent is added with a Multidrop Combi and designated small volume cassette to initiate the kinase reaction. Plates are spun at 1000 rpm for 30 seconds. Plates are then sealed and incubated at RT for 90 minutes. The assay is stopped by the addition of 5 μl of 120 mM EDTA added with a Multidrop Combi and designated small volume cassette (20 mM final concentration). Plates are spun at 1000 rpm for 30 seconds. 10 μl of the final reaction mix from each of the three individual enzyme plates are transferred by a Platemate Plus to the same corresponding 96 well deepwell plate containing 70 μl Water/Methanol (85/15%) for multiplex MS detection ([…]). Using Activity Base (ABase), an idbs data analysis software tool, the reported area ratio unit data is associated to compound, batch and dose information, the data is evaluated for quality, and the percent inhibition of each well is calculated. The data from each Max effect/HPE and Min effect/ZPE control wells are assessed, and outliers are excluded from all further calculations. The mean and standard deviation of the HPE and ZPE are then calculated for each plate, along with the Z Prime. The compound data is converted into % effect, using the average ZPE and HPE controls as 0% and 100% activity, respectively.

For a further test, the target named is SIK2 (Homo sapiens (Human), UniProt Q9H0K1). Kind of test: Pan SIK MS IC50 enzyme assay (SIK2). The format is biochemical. To be noted: 1 mM ATP, substrate peptide AQT0252, LCMS/MS detection. As to the method: as §2, §3
Chain of SIK2 (Q9H0K1 whole entry, species assumed): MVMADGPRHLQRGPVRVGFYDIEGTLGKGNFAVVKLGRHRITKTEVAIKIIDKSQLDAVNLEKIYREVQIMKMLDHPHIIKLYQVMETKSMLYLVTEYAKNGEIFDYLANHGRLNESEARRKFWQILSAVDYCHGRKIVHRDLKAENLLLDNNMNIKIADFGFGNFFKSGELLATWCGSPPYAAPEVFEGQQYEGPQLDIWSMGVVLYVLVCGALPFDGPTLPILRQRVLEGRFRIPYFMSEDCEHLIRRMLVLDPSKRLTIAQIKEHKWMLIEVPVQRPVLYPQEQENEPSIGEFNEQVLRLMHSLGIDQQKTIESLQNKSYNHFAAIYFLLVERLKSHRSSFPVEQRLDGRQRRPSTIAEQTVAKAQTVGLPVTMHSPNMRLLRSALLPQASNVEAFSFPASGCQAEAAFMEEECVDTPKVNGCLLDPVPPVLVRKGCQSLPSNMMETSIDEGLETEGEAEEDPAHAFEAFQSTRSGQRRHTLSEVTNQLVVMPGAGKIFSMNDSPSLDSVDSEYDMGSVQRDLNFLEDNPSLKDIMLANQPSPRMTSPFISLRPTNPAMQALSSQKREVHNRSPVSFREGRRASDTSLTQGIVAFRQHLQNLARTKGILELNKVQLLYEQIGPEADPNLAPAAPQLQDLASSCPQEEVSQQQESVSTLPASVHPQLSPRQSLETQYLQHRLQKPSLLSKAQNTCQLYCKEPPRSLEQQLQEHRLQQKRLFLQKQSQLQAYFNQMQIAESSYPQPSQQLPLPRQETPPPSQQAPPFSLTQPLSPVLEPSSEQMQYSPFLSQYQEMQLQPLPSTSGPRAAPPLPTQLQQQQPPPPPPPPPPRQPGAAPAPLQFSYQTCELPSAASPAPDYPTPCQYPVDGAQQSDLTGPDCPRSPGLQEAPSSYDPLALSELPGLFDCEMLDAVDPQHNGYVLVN
For another test, the target named is SIK1 (Homo sapiens (Human), UniProt P57059). Kind of test: Pan SIK MS IC50 enzyme assay (SIK1). The format is biochemical. Particulars: 1 mM ATP, substrate peptide AQT0868, LCMS/MS detection. The protocol:
as §2, §3

Where two headings read alike, the source gives them in different places.

Chain of SIK1 (P57059 whole entry, species assumed): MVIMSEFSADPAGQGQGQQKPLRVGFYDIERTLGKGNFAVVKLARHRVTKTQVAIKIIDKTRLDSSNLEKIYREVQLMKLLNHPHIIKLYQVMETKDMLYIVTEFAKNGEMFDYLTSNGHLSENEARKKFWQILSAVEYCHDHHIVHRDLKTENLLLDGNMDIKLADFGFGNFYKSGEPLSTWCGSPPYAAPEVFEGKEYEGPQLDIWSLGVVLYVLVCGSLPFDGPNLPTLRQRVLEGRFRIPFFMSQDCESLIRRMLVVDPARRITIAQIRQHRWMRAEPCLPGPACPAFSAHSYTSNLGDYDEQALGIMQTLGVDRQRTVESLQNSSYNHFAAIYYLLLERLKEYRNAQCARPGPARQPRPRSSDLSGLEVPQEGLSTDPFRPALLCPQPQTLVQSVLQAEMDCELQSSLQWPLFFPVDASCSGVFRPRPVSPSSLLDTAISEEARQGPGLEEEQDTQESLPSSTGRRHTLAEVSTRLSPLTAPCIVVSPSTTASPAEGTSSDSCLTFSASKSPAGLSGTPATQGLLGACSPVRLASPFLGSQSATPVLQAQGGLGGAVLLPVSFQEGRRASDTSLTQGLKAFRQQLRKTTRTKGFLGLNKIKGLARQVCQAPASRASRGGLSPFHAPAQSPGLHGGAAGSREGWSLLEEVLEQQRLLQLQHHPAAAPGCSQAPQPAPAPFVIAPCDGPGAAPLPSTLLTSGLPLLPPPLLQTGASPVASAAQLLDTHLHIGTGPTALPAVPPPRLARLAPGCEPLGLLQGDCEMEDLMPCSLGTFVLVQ

In the case of `CSc1cc(-c2cnc3ccc(N4CCC4)c(C#N)n23)cc(OCC2(N)CCCC2)c1C#N` [Example 46, 3-(3-((1-Aminocyclopentyl)methoxy)-4-cyano-5-(methylthio)phenyl)-6-(azetidin-1-yl)imidazo[1,2-a]pyridine-5-carbonitrile], the 50% effective concentration (EC50) (commonly the midpoint of the concentration-response curve) in test [1] (Macrophage) stood at 28 nM. Moreover, the IC50 (commonly the concentration at which inhibition is half-maximal) in test [2] (Macrophage) was 6.9 nM; against SIK3 it was 2.8 nM; at SIK2, 1.5 nM; on SIK1, 0.8 nM.

In the case of `CSc1cc(-c2cnc3cccc(C#N)n23)cc(OCC2(N)CCSC2)c1C#N` (racemic) [Example 27, (R)-3-(3-((3-aminotetrahydrothiophen-3-yl)methoxy)-4-cyano-5-(methylthio)phenyl)imidazo[1,2-a]pyridine-5-carbonitrile and (6)-3-(3-(((3-aminotetrahydrothiophen-3-yl)methoxy)-4-cyano-5-(methylthio)phenyl)imidazo[1,2-a]pyridine-5-carbonitrile], it took 142 nM to reach a half-maximal effect in test [1] (Macrophage) (EC50). Further, the IC50 in test [2] (Macrophage) was found to be 25.8 nM; against SIK3, 5.1 nM; at SIK2 it was 2.5 nM; on SIK1 it was 3.3 nM.

Molecule `COc1cc(C#N)n2c(-c3cc(OCC4(N)CCCCC4)c(C#N)c(SC)c3)cnc2c1` [Example 51, 3-(3-((1-Aminocyclohexyl)methoxy)-4-cyano-5-(methylthio)phenyl)-7-methoxyimidazo[1,2-a]pyridine-5-carbonitrile] yielded a concentration for a half-maximal effect (EC50) in test [1] (Macrophage) of 26 nM. Also, the half-maximal inhibitory concentration (IC50) in test [2] (Macrophage) was 5.7 nM; against SIK3 it was 1.6 nM; at SIK2, 0.5 nM; against SIK1, 1.5 nM.

In test [1], “3-(3-((1-Aminocyclopentyl)methoxy)-4-cyano-5-(methylthio)phenyl)pyrazolo[1,5-a]pyridine-4-carbonitrile [Example 37]” had an EC50 of 27 nM. Moreover, the IC50 in test [2] came to 3.9 nM; against SIK3 it was 0.9 nM; against SIK2, 0.4 nM; at SIK1, 0.3 nM.

In test [1] (Macrophage), `COc1ccc2ncc(-c3cc(OCC4(N)CCCC4)c(C#N)c(SC)c3)n2c1C#N` [Example 39, 3-(3-((1-Aminocyclopentyl)methoxy)-4-cyano-5-(methylthio)phenyl)-6-methoxyimidazo[1,2-a]pyridine-5-carbonitrile] returned a concentration for a half-maximal effect (EC50) of 25 nM. The IC50 in test [2] (Macrophage) stood at 6 nM; at SIK3, 1.1 nM; on SIK2, 1 nM; at SIK1 it was 0.5 nM.

`CSc1cc(-c2cnc3cccc(C#N)n23)cc(OC[C@@]2(N)CCCC(C)(C)C2)c1C#N` (mixture of isomers) [Example 14, (R)-3-(3-((1-Amino-3,3-dimethylcyclohexyl)methoxy)-4-cyano-5-(methylthio)phenyl)imidazo[1,2-a]pyridine-5-carbonitrile and (S)-3-(3-((1-amino-3,3-dimethylcyclohexyl)methoxy)-4-cyano-5-(methylthio)phenyl)imidazo[1,2-a]pyridine-5-carbonitrile] came in with a concentration for a half-maximal effect (EC50) in test [1] (Macrophage) of 45 nM. The concentration for half-maximal inhibition (IC50) in test [2] (Macrophage) stood at 13.7 nM; against SIK3 it was 1.2 nM; at SIK2, 1.5 nM; against SIK1 it was 0.6 nM.

The molecule `CSc1cc(-c2cnc3ccccn23)cc(OC[C@]2(N)CCSC2)c1C#N` (mixture of isomers) [Example 22, (R)-2-((3-Aminotetrahydrothiophen-3-yl)methoxy)-4-(imidazo[1,2-a]pyridin-3-yl)-6-(methylthio)benzonitrile and (S)-2-((3-Aminotetrahydrothiophen-3-yl)methoxy)-4-(imidazo[1,2-a]pyridin-3-yl)-6-(methylthio)benzonitrile] gave an EC50 in test [1] (Macrophage) of 357 nM. Further, the IC50 in test [2] (Macrophage) is 32.4 nM; at SIK3, 5.9 nM; against SIK2 it was 1.3 nM; on SIK1, 1.6 nM.

The molecule `CC[C@@H]1CCC[C@@]1(N)COc1cc(-c2cnc3cccc(OC)n23)cc(SC)c1C#N` (mixture of isomers) [Example 9, 2-(((1S,2R)-1-Amino-2-ethylcyclopentyl)methoxy)-4-(5-methoxyimidazo[1,2-a]pyridin-3-yl)-6-(methylthio)benzonitrile and 2-(((1R,2S)-1-amino-2-ethylcyclopentyl)methoxy)-4-(5-methoxyimidazo[1,2-a]pyridin-3-yl)-6-(methylthio)benzonitrile] registered an EC50 in test [1] (Macrophage) of 12 nM. Further, the IC50 in test [2] (Macrophage) came to 5.3 nM.

The molecule `CNc1ccc2ncc(-c3cc(OCC4(N)CCCC4)c(C#N)c(SC)c3)n2c1C#N` [Example 53, 3-(3-((1-Aminocyclopentyl)methoxy)-4-cyano-5-(methylthio)phenyl)-6-(methylamino)imidazo[1,2-a]pyridine-5-carbonitrile] registered a concentration for a half-maximal effect (EC50) in test [1] (Macrophage) of 4 nM. For the same molecule, the IC50 is 0.5 nM in test [2] (Macrophage), 1.5 nM at SIK3, 0.4 nM against SIK2 and 0.1 nM at SIK1.

In turn, `COc1ccc2ncc(-c3cc(OCC4(N)CCCCC4)c(C#N)c(SC)c3)n2c1C#N` [Example 49, 3-(3-((1-Aminocyclohexyl)methoxy)-4-cyano-5-(methylthio)phenyl)-6-methoxyimidazo[1,2-a]pyridine-5-carbonitrile] yielded a concentration for a half-maximal effect (EC50) in test [1] (Macrophage) of 18 nM. Besides, the half-inhibitory concentration (IC50) was 6.5 nM in test [2] (Macrophage), 2.4 nM against SIK3, 0.7 nM against SIK2 and 0.9 nM against SIK1.

With `CSc1cc(-c2cnc3cc(C)cc(C#N)n23)cc(OCC2(N)CCCC2)c1C#N` [Example 41, 3-(3-((1-Aminocyclopentyl)methoxy)-4-cyano-5-(methylthio)phenyl)-7-methylimidazo[1,2-a]pyridine-5-carbonitrile], in test [1] (Macrophage), the EC50 came out at 54 nM. The 50% inhibitory concentration (IC50) is 5.3 nM in test [2] (Macrophage), 0.7 nM at SIK3, 0.8 nM at SIK2 and 1.9 nM against SIK1.

As to `COc1cc(C#N)n2c(-c3cc(OCC4(N)CCCC4)c(C#N)c(SC)c3)cnc2c1` [Example 50, 3-(3-((1-Aminocyclopentyl)methoxy)-4-cyano-5-(methylthio)phenyl)-7-methoxyimidazo[1,2-a]pyridine-5-carbonitrile], in test [1] (Macrophage), the EC50 amounted to 29 nM. Moreover, the 50% inhibitory concentration (IC50) in test [2] (Macrophage) worked out at 4.2 nM; against SIK3, 0.8 nM; on SIK2, 0.5 nM; against SIK1 it was 1.2 nM.

In test [1] (Macrophage), `CSc1cc(-c2cnc3cccc(C#N)n23)cc(OC[C@@]2(N)CCC(F)(F)C2)c1C#N` (mixture of isomers) [Example 12, (R)-3-(3-((1-Amino-3,3-difluorocyclopentyl)methoxy)-4-cyano-5-(methylthio)phenyl)imidazo[1,2-a]pyridine-5-carbonitrile and (S)-3-(3-((1-amino-3,3-difluorocyclopentyl)methoxy)-4-cyano-5-(methylthio)phenyl)imidazo[1,2-a]pyridine-5-carbonitrile] yielded an EC50 of 67 nM. Besides, the IC50 in test [2] (Macrophage) amounted to 20.1 nM.

`CC[C@@H]1CCC[C@](N)(COc2cc(-c3cnc4cccc(OC)n34)cc(OC)c2C#N)C1` [Example 16, 2-(((1R,3R)-1-Amino-3-ethylcyclohexyl)methoxy)-6-methoxy-4-(5-methoxyimidazo[1,2-a]pyridin-3-yl)benzonitrile and 2-(((16,36)-1-Amino-3-ethylcyclohexyl)methoxy)-6-methoxy-4-(5-methoxyimidazo[1,2-a]pyridin-3-yl)benzonitrile]: the response in test [1] (Macrophage) was half-maximal at 14 nM (EC50). Also, in test [2] (Macrophage), the IC50 is 4.8 nM.

Source of the values: US20240124450A1, “Novel SIK Inhibitors” (Pfizer Inc., priority 2022, published 2024).
